Measured values as given in EP4813381A1, “PHARMACEUTICAL USE OF GUAIANE SESQUITERPENE DERIVATIVE” (Nanjing University Of Chinese Medicine, priority 2023, dated 2025).

Legend:
Rat mast cells (RBL-2H3) = experiment: Mast cell degranulation test (anti-DNP IgE / DNP-HSA); format: cell-based; settings: RBL-2H3, IgE+HSA, 4 h
Method: Rat mast cells (RBL-2H3) were cultured routinely in DMEM medium containing 10% FBS within a 5% CO2 incubator. Upon reaching 70-80% confluence, cells were uniformly seeded at a density of 1 × 10^5 cells/mL into 6-well plates (2 mL per well), divided into the following groups: Normal, IgE+HSA, Compound 1 (0.01, 0.1, 1, 10 µM). Mast cells were sensitized with 500 µg/L anti-DNP IgE for 12 h. washed with PBS, and cultured for an additional 12 h with 100 µg/L DNP-HSA. Compound 1 at the specified concentrations was then added. […]

[1] = tested on: CCl4-induced liver injury; experiment: CCl4 acute liver injury model in mice: serum ALT and AST; format: in vivo, C57BL/6 mice; settings: 3 days (method: U/L)
Source text: The drug of the present invention, prepared according to Example 2; Silybin, Shanghai Yuanye Biotechnology Co., Ltd.; Olive oil, Beijing […] Olive Oil Development Center; Analytical grade carbon tetrachloride (CCl4), Shantou Xilong Chemical Factory; Sodium carboxymethyl cellulose (CMC-Na), Guangdong Shantou Xilong Chemical Factory; RNA Isolater Total RNA Extraction Reagent, […] RT Supermix for qPCR, Nanjing Vazyme Biotech Co., Ltd.; AceQ qPCR SYBR Green Master Mix, Shanghai Yeasen Biotechnology Co., Ltd.; Aspartate Transaminase (AST/GOT) Colorimetric Test Kit, Alanine Transaminase (ALT/GPT) Colorimetric Test Kit, Wuhan Elabscience Biotechnology Co., Ltd. • Experimental animals: […] SCXK(Su)2019-002. […] They were acclimated for 7 days before use in experiments. • Experimental Methods: Establishment of Acute Liver Injury Model in Mice and Group-Specific Drug Administration • Mice were randomly assigned to groups. […] One hour after the final drug administration, blood was collected from the retinal venous plexus. […] Serum was aspirated, aliquoted, and stored at -70 °C for future use. After blood collection, euthanize mice by cervical dislocation. Perform laparotomy to remove the liver. Rinse twice with pre-chilled PBS. Excise the left hepatic lobe tissue. […] Store remaining tissue at -70 °C for future use. • Serum AST and ALT Assay: Use 10 μL of each sample for testing. Determine mouse serum AST and ALT levels according to the operating manual. Measure absorbance at 510 nm using an enzyme-linked immunosorbent assay (ELISA) reader. Calculate sample concentration (U/L) based on the standard curve. Data Statistics: All data are expressed as means ± standard error of the mean (S.E.M.). Differences were analyzed for significance using analysis of variance (ANOVA). For groups showing significant differences in ANOVA, one-way ANOVA followed by Dunnett's test was performed to compare intergroup differences.

[2] = tested on: MC903-induced atopic dermatitis (AD); experiment: MC903-induced ear atopic dermatitis mouse model, Compound 1 ointment: ear thickness and dermatitis score; format: in vivo, mice; settings: for inhibition rate (ear thickness): final day; for Dermatitis Score: ear, score max 12
Method: Weigh white petrolatum, light liquid paraffin, glyceryl monostearate, ethylparaben, and cetyl alcohol. Heat to 65 °C while stirring until dissolved. Slowly add the dissolved active pharmaceutical ingredient (API) while continuing to stir until uniformly mixed. Set aside. • (2) Aqueous Phase Preparation: […] Slowly add the aqueous phase to the oil phase while maintaining 65 °C, homogenize, and continue stirring for 30 min; • (4) Cooling: Stop heating, continue stirring, gradually reduce to room temperature, cool to form an ointment, and fill containers. […] Dissolve these substances in a small amount of propylene glycol, then place the resulting solution into the aforementioned pre-cooled blank ointment base. […] Skin Lesion Severity Score: […] Statistical analysis was performed on the data.

CT26 cells = format: in vivo, BALB/c mice; settings: CT26, oral 80 µmol/kg/day, 3 weeks
lupus nephritis = experiment: Lupus nephritis MRL/lpr mice: urinary protein, Scr, BUN, urinary Kim-1 and β-MG; format: in vivo; parameters: Scr / BUN / Kim-1 / β-MG: unit not given here; settings: oral 30 mg/kg, 8 weeks
Method: RT Supermix for qPCR, Nanjing Vazyme Biotech Co., Ltd.; Urea Colorimetric Test Kit, Creatinine Colorimetric Test Kit, Nanjing Jiancheng Biotechnology Co., Ltd.; Urinary Kim-1 and β-MG Content ELISA Kits, Abcam. • Experimental animals: MRL/MpJ and MRL/lpr mice, female, 10 weeks old, purchased from GemPharmatech LLC. Production license number: SCXK(Su)2023-0009. […] They were acclimated for 7 days before use in experiments. […] Oral administration was performed continuously for 8 weeks. […] Aspirate the serum, aliquot it, and store at -70 °C for future use. After blood collection, euthanize mice by cervical dislocation. Open the abdominal cavity, remove kidneys, and dissect out perirenal fat and capsules. […] Store remaining tissues at -70 °C for future use. Serum Creatinine (Scr) and Blood Urea Nitrogen (BUN) Assay: […] Samples were added sequentially strictly according to the kit instructions, incubated at 37 °C, and measured for absorbance values using an enzyme-linked immunosorbent assay (ELISA) reader. The concentration levels of each indicator were calculated based on the standard curve.

Compound `C=C1C(=O)O[C@@H]2[C@@H]3[C@]4(CC[C@@]3(C)O)C[C@]4(C)CC[C@@H]12` [compound 1] has a β-Glucosaminidase (Rat mast cells (RBL-2H3); 0.01 µM) of 13.24 ± 0.08 ng/mL, a β-Glucosaminidase (Rat mast cells (RBL-2H3); 0.1 µM) of 12.08 ± 0.12 ng/mL and a β-Glucosaminidase (Rat mast cells (RBL-2H3); 1 µM) of 10.65 ± 0.05 ng/mL. For the same compound, the β-Glucosaminidase (Rat mast cells (RBL-2H3); 10 µM) was 7.13 ± 0.07 ng/mL, the ALT ([1]; oral 0.1 mg/kg) was 173.58 ± 22.75 and the AST ([1]; oral 0.1 mg/kg) was 424.52 ± 175.34. The ALT ([1]; oral 1 mg/kg) was 104.22 ± 5.21, the AST ([1]; oral 1 mg/kg) was 237.16±36.70 and the “inhibition rate (ear thickness)” value ([2]; 0.01% Compound 1 ointment) was 71%. For the same compound, the ear thickness ([2]; 0.01% ointment, Day 1) was 0.14±0.00 mm, the ear thickness ([2]; 0.01% ointment, Day 3) was 0.17±0.00 mm and the ear thickness ([2]; 0.01% ointment, Day 5) was 0.21±0.00 mm. The ear thickness ([2]; 0.01% ointment, Day 7) was 0.22±0.00 mm, the ear thickness ([2]; 0.01% ointment, Day 8) was 0.23±0.01 mm and the ear thickness ([2]; 0.01% ointment, Day 9) was 0.23±0.01 mm. The ear thickness ([2]; 0.01% ointment, Day 10) was 0.25±0.00 mm, the ear thickness ([2]; 0.01% ointment, Day 11) was 0.26±0.01 mm and the ear thickness ([2]; 0.01% ointment, Day 12) was 0.26±0.01 mm. For the same compound, the ear thickness ([2]; 0.01% ointment, Day 13) was 0.22±0.01 mm, the ear thickness ([2]; 0.01% ointment, Day 14) was 0.21±0.01 mm and the “inhibition rate (ear thickness)” value ([2]; 0.1% Compound 1 ointment) was 71%. For the same compound, the ear thickness ([2]; 0.1% ointment, Day 1) was 0.14±0.00 mm, the ear thickness ([2]; 0.1% ointment, Day 3) was 0.17±0.00 mm and the ear thickness ([2]; 0.1% ointment, Day 5) was 0.21±0.00 mm. For the same compound, the ear thickness ([2]; 0.1% ointment, Day 7) was 0.21±0.00 mm, the ear thickness ([2]; 0.1% ointment, Day 8) was 0.23±0.00 mm and the ear thickness ([2]; 0.1% ointment, Day 9) was 0.23±0.00 mm. For the same compound, the ear thickness ([2]; 0.1% ointment, Day 10) was 0.23±0.00 mm, the ear thickness ([2]; 0.1% ointment, Day 11) was 0.24±0.01 mm and the ear thickness ([2]; 0.1% ointment, Day 12) was 0.24±0.01 mm. For the same compound, the ear thickness ([2]; 0.1% ointment, Day 13) was 0.21±0.01 mm, the ear thickness ([2]; 0.1% ointment, Day 14) was 0.21±0.01 mm and the “inhibition rate (ear thickness)” value ([2]; 1% Compound 1 ointment) was 80%. It also gave an ear thickness ([2]; 1% ointment, Day 1) of 0.15±0.00 mm, an ear thickness ([2]; 1% ointment, Day 3) of 0.17±0.00 mm and an ear thickness ([2]; 1% ointment, Day 5) of 0.21±0.00 mm. For the same compound, the ear thickness ([2]; 1% ointment, Day 7) was 0.22±0.01 mm, the ear thickness ([2]; 1% ointment, Day 8) was 0.22±0.01 mm and the ear thickness ([2]; 1% ointment, Day 9) was 0.23±0.01 mm. It also gave an ear thickness ([2]; 1% ointment, Day 10) of 0.23±0.01 mm, an ear thickness ([2]; 1% ointment, Day 11) of 0.24±0.00 mm and an ear thickness ([2]; 1% ointment, Day 12) of 0.23±0.01 mm. The ear thickness ([2]; 1% ointment, Day 13) was 0.20±0.00 mm, the ear thickness ([2]; 1% ointment, Day 14) was 0.19±0.00 mm and the “Dermatitis Score” value ([2]; 0.01% ointment for 7 days) was 3.50±0.22. The “Dermatitis Score” value ([2]; 0.1% ointment for 7 days) was 2.67±0.21 and the “Dermatitis Score” value ([2]; 1% ointment for 7 days) was 2.33±0.33.

With `CN(C)C[C@@H]1C(=O)O[C@H]2[C@H]1CC[C@@]1(C)C[C@]13CC[C@@](C)(O)[C@H]23` [compound 20] the antitumor effects (CT26 cells) was “tumor-inhibiting effects”, the “24-hour urine protein level” value (lupus nephritis) was 0.58±0.03 and the BUN (lupus nephritis; serum) was 9.55±0.75. The Scr (lupus nephritis; serum) was 18.55±1.08, the Kim-1 (lupus nephritis; urine) was 0.41±0.02 and the β-MG (lupus nephritis; urine) was 13.55±0.14.
